Legend:
[1] = SSP4 fluorescence assay to determine generation of H2S2 in buffer
Excerpt: To further evaluate the specificity of TTS in converting H2S to H2S2, SSP4 was used to monitor the formation of H2S2 in this reaction and the results were compared with a series of controls. Details of the SSP4 experiments are provided later herein. SSP4 is a well-established fluorescent sensor for sulfane sulfurs including H2S2. See Shieh, M. et al., Shining a light on SSP4: a comprehensive analysis and biological applications for the detection of sulfane sulfurs. Redox Biol. 2022, 56, 102433. […] Without wishing to be bound by scientific theory, it is believed that thiols would compete with SSP4 to react with H2S2, thereby causing decreased signals.
SSP4 was dissolved in DMSO to obtain a 200 μM stock solution. CTAB was dissolved in ethanol to yield a 2 mM stock solution. TTS and TT were dissolved in DMSO to make 1 mM stock solutions. Na2S, Na2S2, and L-cysteine were prepared in MilliQ H2O to obtain stock solutions at 2 mM, 1 mM, and 4 mM, respectively. 50 mM PBS buffer was added to individual wells of a black polystyrene, flat-bottomed clear 96-well plate, followed by TTS (25 μM) or TT (25 μM), and Na2S (50 μM), cysteine (100 μM), or Na2S2 (25 μM). For the interference assay, TTS or TT (25 μM) were added to wells with or without Na2S (50 μM). Samples were mixed by pipetting up and down and incubated in the dark at room temperature (rt) for 30 min. Next, CTAB (50 μM) was added to all wells followed by SSP4 (5 μM), and samples were mixed by pipetting up and down. The final volume was 200 μL in each well. Samples were then incubated in the dark at room temperature for another 30 min before being measured on a Molecular Devices SpectraMax iD3 Multi-Mode Microplate Reader (emission 525 nm; excitation 485 nm; integration time […], low PMT sensitivity, attenuation 1, read height 1.00 mm).

[2] = Monitoring H2S2 formation from the TTS-TAGDD hybrid compound 3 (SSP4, 12 h); conditions: 25 μM compound only, over 12 hours
Procedure: Monitoring H2S2 formation from the TTS-TAGDD hybrid compound 3: TTS and 3 were prepared as 1 mM solutions in DMSO. L-cysteine and Na2S2 were prepared at 4 mM and 1 mM in MilliQ H2O, respectively. SSP4 was dissolved in DMSO to obtain a 200 μM stock solution. CTAB was dissolved in ethanol to yield a 2 mM stock solution. 50 mM PBS buffer (pH 7.4) was added to individual wells of a black polystyrene, flat-bottomed clear 96-well plate, followed by TTS (25 μM) or 3 (25 μM) then cysteine (100 μM) or Na2S2 (25 μM). Samples were mixed by pipetting up and down and incubated in the dark at room temperature (rt) for 30 min. Next, CTAB (50 μM) was added to all wells followed by SSP4 (5 μM), and samples were mixed by pipetting up and down. Samples were then incubated in the dark at room temperature for another 30 min before being measured on a Molecular Devices SpectraMax iD3 Multi-Mode Microplate Reader (fluorescence mode; kinetics measurement type; emission 535 nm; excitation 485 nm; integration time […], low PMT sensitivity, attenuation 1, read height 1.00 mm; total run time: 12 hours; 25 cycles; interval: 0.5 hours). Data was graphed as a time dependent fluorescence response, with F0 as the SSP4 only condition. The fluorescence of Na2S2 over time was not represented in the line graph presented due to the compound's known instability. Data obtained from the 12 h time point including from Na2S2 was also represented in a bar graph for greater clarity. Results were expressed as mean±SEM (n=3).

[3] = Kinetic study of the reaction between TTS and H2S (UV-Vis, 380 nm); format: physicochemical; parameters: unit not given here; conditions: TTS 50 μM, Na2S 5 mM, PBS pH 7.4, room temperature; average of 3 trials
Procedure: FIG. 1A depicts UV-Vis absorbance spectra changes of the reaction between TTS (100 μM) and H2S (200 μM) over 1 min intervals. FIG. 1B depicts representative time-dependent [TTS] changes based on UV-Vis absorption changes at 380 nm of the reaction between TTS (50 μM) and Na2S (5 mM). FIG. 1C depicts representative time-dependent −ln([TTS]/[TTS]0) changes based on UV-Vis absorption changes at 380 nm of the reaction between TTS (50 μM) and Na2S (5 mM). […] See Kolb, H. C. et al., Click chemistry: diverse chemical function from a few good reactions. Angew. Chem. Int. Ed. 2001, 40, 2004-2021.
Kinetic study of the reaction between TTS and H2S: TTS (10 μL, 10 mM in DMSO solution, final concentration=50 μM) and Na2S (20 μL, 500 mM in MilliQ H2O, final concentration=5 mM), reacted in PBS buffer (50 mM, pH=7.4) (2 mL) at room temperature. The kinetics were detected by UV-Vis absorbance spectrum (λ=380 nm) based on the decrease of TTS. This reaction can be seen as a pseudo-first order reaction; the second-order k constant (k) was calculated by: […]
The final k reported above was calculated by taking the average of the k values from 3 trials. • To determine [TTS] at each time point: […]

COC(=O)c1ccc(=S=O)sc1 [TTS, 2H-thiopyran-2-thione sulfine]
SSP4 fluorescence in interference experiments with thiols ([1]; 25 μM TTS + 50 μM Na2S + 200 μM Cys or 1 mM GSH): decreased but still significant fluorescence | SSP4 fluorescence response (H2S2 formation) ([1]; 25 μM compound + 50 μM Na2S (H2S), PBS, SSP4 5 μM): significant fluorescence response | SSP4 fluorescence response (sulfane sulfur formation) ([1]; 25 μM compound + 100 μM Cys, SSP4 5 μM): No fluorescence | SSP4 fluorescence response (H2S2 formation) ([1]; 25 μM compound only, SSP4 5 μM): No fluorescence | SSP4 fluorescence [2]: did not give any notable fluorescence | second-order rate constant k2 of the reaction between TTS and H2S [3]: 2.7
